From patent publication US20230023559A1, “ARYLMETHYLENE HETEROCYCLIC COMPOUNDS AS KV1.3 POTASSIUM SHAKER CHANNEL BLOCKERS” (D. E. Shaw Research, LLC, priority 2019, published 2023)

Columns and labels:
Kv1.3 potassium channel = biological target: T1, Kv1.3 potassium channel (Homo sapiens, UniProt P22001); assay: Kv1.3 potassium channel blocker activity, automated whole-cell patch clamp (Patchliner); assay type: cell-based; settings: CHO-K1 cells stably expressing Kv1.3; whole cell current inhibition; read-out: Kv1.3_IC50
T1 construct: expressed in transfected cells
Method in brief: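 CHO-K1 cells stably expressing Kv1.3, automated whole-cell patch clamp. Currents evoked by 100 ms steps from −90 mV holding to +40 mV at 0.1 Hz, sampled at 10 kHz unfiltered, P/4 leak subtraction; peak current inhibition measured, compound incubation ≤10 s between pulse trains.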

hERG channel = hERG channel (Homo sapiens, UniProt Q12809); assay: hERG electrophysiology, automated whole-cell patch clamp (Patchliner)
Chain of hERG channel (Q12809 whole entry): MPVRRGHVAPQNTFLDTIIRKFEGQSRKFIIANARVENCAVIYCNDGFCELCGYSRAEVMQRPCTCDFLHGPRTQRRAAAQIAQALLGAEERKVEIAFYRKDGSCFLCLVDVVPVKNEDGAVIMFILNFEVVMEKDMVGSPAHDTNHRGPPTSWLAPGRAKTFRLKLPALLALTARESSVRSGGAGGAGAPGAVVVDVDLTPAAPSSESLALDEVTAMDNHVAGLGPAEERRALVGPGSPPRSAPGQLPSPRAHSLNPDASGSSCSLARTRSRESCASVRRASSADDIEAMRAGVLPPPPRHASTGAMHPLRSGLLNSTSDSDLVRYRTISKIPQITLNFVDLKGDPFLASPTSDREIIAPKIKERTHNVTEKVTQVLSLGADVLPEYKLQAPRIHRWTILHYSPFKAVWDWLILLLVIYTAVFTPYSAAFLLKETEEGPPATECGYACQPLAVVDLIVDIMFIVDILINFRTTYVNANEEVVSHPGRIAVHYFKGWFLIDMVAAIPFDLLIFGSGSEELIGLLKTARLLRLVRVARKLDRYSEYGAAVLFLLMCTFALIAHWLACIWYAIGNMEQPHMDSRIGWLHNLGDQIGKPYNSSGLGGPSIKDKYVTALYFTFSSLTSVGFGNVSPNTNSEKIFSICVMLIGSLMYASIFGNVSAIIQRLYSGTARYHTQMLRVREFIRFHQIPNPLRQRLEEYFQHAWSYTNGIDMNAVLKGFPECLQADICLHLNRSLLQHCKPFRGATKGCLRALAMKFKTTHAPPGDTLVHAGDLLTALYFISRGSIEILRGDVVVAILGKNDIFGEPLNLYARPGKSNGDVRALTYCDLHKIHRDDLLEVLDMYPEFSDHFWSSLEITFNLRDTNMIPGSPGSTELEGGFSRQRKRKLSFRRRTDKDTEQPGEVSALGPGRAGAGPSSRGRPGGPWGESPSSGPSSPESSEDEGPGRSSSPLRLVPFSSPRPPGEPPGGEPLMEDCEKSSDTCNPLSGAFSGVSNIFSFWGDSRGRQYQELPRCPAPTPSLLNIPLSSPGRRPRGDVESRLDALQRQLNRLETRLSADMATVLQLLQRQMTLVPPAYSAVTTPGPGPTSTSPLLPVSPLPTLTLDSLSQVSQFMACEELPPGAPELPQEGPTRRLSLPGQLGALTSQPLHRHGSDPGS

T1 sequence (P22001 whole entry): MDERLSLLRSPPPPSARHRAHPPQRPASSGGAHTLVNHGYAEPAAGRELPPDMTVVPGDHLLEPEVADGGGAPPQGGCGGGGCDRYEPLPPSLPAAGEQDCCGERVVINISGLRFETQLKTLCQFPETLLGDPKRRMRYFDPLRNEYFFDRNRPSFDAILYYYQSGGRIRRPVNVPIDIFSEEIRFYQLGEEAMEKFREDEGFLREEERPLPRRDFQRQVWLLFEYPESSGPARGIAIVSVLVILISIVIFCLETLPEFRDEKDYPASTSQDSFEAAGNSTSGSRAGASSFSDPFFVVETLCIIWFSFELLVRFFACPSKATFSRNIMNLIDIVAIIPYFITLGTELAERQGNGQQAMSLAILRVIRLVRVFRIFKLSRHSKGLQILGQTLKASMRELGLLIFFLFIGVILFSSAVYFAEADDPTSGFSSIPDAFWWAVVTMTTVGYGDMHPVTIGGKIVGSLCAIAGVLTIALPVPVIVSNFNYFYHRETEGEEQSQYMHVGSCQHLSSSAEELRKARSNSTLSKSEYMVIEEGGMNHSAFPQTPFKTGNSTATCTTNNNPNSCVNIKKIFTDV

In the case of `Cc1cc(O)c([C@H](N)C2CCN(C(=O)c3c[nH]c(=O)c(Cl)c3)CC2)c(F)c1Cl` [Compound 264, 5-[4-[(R)-amino(3-chloro-2-fluoro-6-hydroxy-4-methylphenyl)methyl]piperidine-1-carbonyl]-3-chloro-1H-pyridin-2-one Trifluoroacetic Acid], the IC50 (Kv1.3 potassium channel) is reported as < 10 µM and the IC50 (hERG channel) is reported as > 30 µM.
With `N[C@@H](c1c(O)cc(Cl)c(Cl)c1Cl)C1CCNCC1` (single isomer, unassigned) [Compound 61, Trifluoroacetic Acid] the IC50 (Kv1.3 potassium channel) was < 10 µM and the IC50 (hERG channel) was > 30 µM.
In the case of `Cc1cc(O)c([C@H](N)C2CCN(C(=O)c3ccc(=O)[nH]c3)CC2)cc1Cl` [Compound 228, 5-[4-[(R)-amino(5-chloro-2-hydroxy-4-methylphenyl)methyl]piperidine-1-carbonyl]-1H-pyridin-2-one], the IC50 (Kv1.3 potassium channel) is reported as < 0.5 µM and the IC50 (hERG channel) is reported as > 30 µM.
In the case of `N[C@@H](c1cc(Cl)c(Cl)cc1O)C1CCN(C(=O)[C@H]2C[C@@H](O)C2)CC1` [Compound 138, 2-[(R)-amino([1-[(1S,3S)-3-hydroxycyclo-butanecarbonyl]piperidin-4-yl])methyl]-4,5-dichlorophenol trifluoroacetic acid], the IC50 (Kv1.3 potassium channel) is reported as < 10 µM and the IC50 (hERG channel) is reported as > 30 µM.
In the case of `N[C@@H](c1cc(Cl)c(Cl)cc1O)C1CCN(C(=O)C2(O)COC2)CC1` [Compound 143, 3-[4-[(R)-amino(4,5-dichloro-2-hydroxyphenyl)methyl]piperidine-1-carbonyl]oxetan-3-ol], the IC50 (Kv1.3 potassium channel) is reported as < 10 µM and the IC50 (hERG channel) is reported as > 30 µM.
`N[C@@H](c1cc(Cl)c(Cl)cc1O)C1CCN(C(=O)C23CC(O)(C2)C3)CC1` [Compound 160, 3-[4-[(R)-amino(4,5-dichloro-2-hydroxyphenyl)methyl]piperidine-1-carbonyl]bicyclo [1.1.1]pentan-1-ol trifluoroacetic acid] was tested, and the IC50 (Kv1.3 potassium channel) was < 10 µM and the IC50 (hERG channel) was < 30 µM.
`N[C@@H](c1cc(Cl)c(Cl)cc1O)C1CCNCC1` (single isomer, unassigned) [Compound 16, Trifluoroacetic Acid] was tested, and the IC50 (Kv1.3 potassium channel) was < 0.5 µM and the IC50 (hERG channel) was > 30 µM.
In the case of `COCC(=O)N1CCC([C@@H](N)c2cc(Cl)c(Cl)cc2O)CC1` [Compound 134, 1-[4-[(R)-amino(4,5-dichloro-2-hydroxyphenyl)methyl]piperidin-1-yl]-2-methoxyethan-1-one trifluoroacetic acid], the IC50 (Kv1.3 potassium channel) is reported as < 0.5 µM and the IC50 (hERG channel) is reported as < 30 µM.
In the case of `Cn1cc(C(=O)N2CCC([C@@H](N)c3cc(Cl)c(Cl)cc3O)CC2)ccc1=O` [Compound 232, 5-[4-[(R)-amino(4,5-dichloro-2-hydroxyphenyl)methyl]piperidine-1-carbonyl]-1-methylpyridin-2-one], the IC50 (Kv1.3 potassium channel) is reported as < 0.5 µM and the IC50 (hERG channel) is reported as > 30 µM.
With `N[C@@H](c1c(O)cc(Cl)c(Cl)c1Cl)C1CCN(C(=O)[C@H](O)CO)CC1` [Compound 188, (R)-1-(4-((R)-amino(2,3,4-trichloro-6-hydroxyphenyl)methyl)piperidin-1-yl)-2,3-dihydroxypropan-1-one Trifluoroacetic Acid] the IC50 (Kv1.3 potassium channel) was < 10 µM and the IC50 (hERG channel) was > 30 µM.
With `Cc1cc(O)c([C@H](N)C2CCN(C(=O)c3ccc4nccn4c3)CC2)cc1Cl` [Compound 238, 2-[(R)-amino(1-[imidazo[1,2-a]pyridine-6-carbonyl]piperidin-4-yl)methyl]-4-chloro-5-methylphenol trifluoroacetic acid] the IC50 (Kv1.3 potassium channel) was < 0.5 µM and the IC50 (hERG channel) was < 30 µM.
In the case of `COC[C@H](O)C(=O)N1CCC([C@@H](N)c2cc(Cl)c(Cl)cc2O)CC1` [Compound 181, (2S)-1-[4-[(R)-amino(4,5-dichloro-2-hydroxyphenyl)methyl]piperidin-1-yl]-2-hydroxy-3-methoxypropan-1-one trifluoroacetic acid], the IC50 (Kv1.3 potassium channel) is reported as < 0.5 µM and the IC50 (hERG channel) is reported as > 30 µM.
`N[C@@H](c1cc(Cl)c(Cl)cc1O)C1CCN(C(=O)CC2CNC2)CC1` [Compound 103, (R)-1-(4-(amino(4,5-dichloro-2-hydroxyphenyl)methyl)piperidin-1-yl)-2-(azetidin-3-yl)ethanone trifluoroacetic acid] was tested, and the IC50 (Kv1.3 potassium channel) was < 0.5 µM and the IC50 (hERG channel) was > 30 µM.
